Reference: publication PMC5358776, “Insight into the mechanism of action of temporin-SHa, a new broad-spectrum antiparasitic and antibacterial agent” (PLoS ONE, 2017)
≈ marks a conversion by molar mass, not a printed value. Like-named read-outs stand apart in the source and are kept apart here. Where no end group is shown, it is not given here.

How the values were obtained:
[1] = tested on: E. coli ATCC 25922; assay: Multipassage resistance selection; type: cell-based, Escherichia coli; details: for fold increase in the MIC against control bacteria at the end of the selection: lineages grown without antimicrobial agent, passage 55
[2] = tested on: L. infantum promastigotes; assay: DNA fragmentation, TUNEL assay; type: cell-based, Leishmania infantum; details: 50 μM, 48 h
Method: (§1) Mid-log phase L. infantum promastigotes were synchronized at the G1/S border by treating with 10 mM hydroxyurea for 24 h at 26°C [81]. […] Then 400 μl of different concentrations of peptide (12.5, 25 and 50 μM, final concentrations) were added to 1.6 ml of the cell suspension. After 48 h incubation, samples were split into two volumes (2 x 1 ml) to analyze the cell cycle and DNA fragmentation. For cell cycle analysis, the first sample (1 ml) was centrifuged (1,000 x g, 10 min) and 100 μl of HBSS was added to the pellet. Then, 900 μl of cold 70% ethanol was gently added drop-wise for cell fixation. After an overnight incubation at -20°C, cells were washed (16,000 x g, 10 min, 4°C) with HBSS and resuspended in 1 ml of HBSS containing 100 μg of RNase A (Sigma-Aldrich) and 5 μg of propidium iodide. After 30 min of incubation at 37°C, samples were passed 5 times through a sterile plastic syringe fitted with a 27 gauge needle and analyzed by flow cytometry (FACSCalibur). For DNA fragmentation analysis, a TUNEL assay was performed on the second 1 ml sample. […] DNA strand breaks were detected by the addition of biotinylated nucleotides to the free 3′-hydroxyl ends of the DNA fragments using TdT (terminal deoxynucleotidyl transferase) and tagged with a streptavidin-FITC conjugate for subsequent detection by flow cytometry. […]

[3] = tested on: L. infantum promastigotes; assay: Cell cycle analysis, sub-G1 phase; type: cell-based, Leishmania infantum; details: 50 μM, 48 h
Method: as §1

[4] = tested on: S. pyogenes ATCC 19615; details: ATCC 19615
Method: (§2) Listeria ivanovii Li4pVS2 (kindly provided by Jean-Marc Berjeaud, Université de Poitiers, France), and Streptococcus pyogenes ATCC 19615 (ATCC) were cultured in brain heart infusion (BHI, Sigma-Aldrich) medium under the same conditions.
(§3) Activity against bacteria and yeasts was assessed with a liquid growth inhibition assay performed in 96-well microtitration plates, according to a previously described protocol [14], using mid-logarithmic phase cultures diluted in Mueller-Hinton (MH, Dominique Dutscher) broth (LB broth for E. faecalis strain and YPD medium for yeasts/fungi) to an A630 value of 0.01 (10^6 cfu/ml) and 2-fold serial dilutions of synthetic temporin (200–1 μM, final concentrations). The minimal inhibitory concentration (MIC) was determined as the mean value of three independent experiments, each performed in triplicate with negative (H2O) and positive (0.7% formaldehyde) controls.

[5] = tested on: S. aureus ST1065; details: ST1065
Method: as §3

[6] = tested on: Human HepG2; details: MTT, 72 h, 37°C, 50–600 μM; mean of 3 independent experiments in triplicate
[7] = tested on: Human erythrocytes; details: 1 h
Method: (§4) Hemolytic assays were also performed using erythrocytes obtained from fresh blood samples of Wistar male rats (Charles River Laboratories, France). The hemolytic activity was measured by incubating the peptide (1–200 μM, final concentrations) with erythrocytes (2 x 10^7 cells) in PBS (100 μl) for 1 h at 37°C, as previously described [23]. A parallel incubation in the presence of 0.1% (v/v) Triton-X100 was carried out to determine the absorbance associated with 100% hemolysis. […] For THP-1-derived macrophages, viability was determined by Trypan blue staining after incubation with peptide (1–100 μM, final concentrations). LC50 (average concentration of the peptide producing 50% cell lysis) and IC50 values were determined with GraphPad Prism 6.0 software and correspond to the mean obtained from three independent experiments carried out with three (erythrocytes, THP-1 monocytes, HepG2 and HFF cells) or six replicates (THP-1-derived macrophages).
(§5) IC50 or LC50 values were determined for the different human cells mentioned above in the cytotoxicity assays.

[8] = tested on: P. aeruginosa ATCC 27853; details: ATCC 27853
Method: as §2, §3

[9] = tested on: Rat erythrocytes; details: 1 h
Method: as §4, §5

[10] = tested on: C. parapsilosis ATCC 22019; details: ATCC 22019, 96 h
Method: (§6) Candida albicans ATCC 90028, Candida parapsilosis ATCC 22019 (ATCC), and Saccharomyces cerevisiae (laboratory collection) were cultured in yeast peptone dextrose (YPD, Sigma-Aldrich) medium at 30°C.
(§7) The minimal inhibitory concentration (MIC) was determined as the mean value of three independent experiments, each performed in triplicate with negative (H2O) and positive (0.7% formaldehyde) controls.

[11] = tested on: C. albicans ATCC 90028; details: ATCC 90028, 96 h
Method: as §6, §7

[12] = tested on: E. coli ATCC 25922; details: ATCC 25922
Method: as §2, §3

[13] = tested on: A. baumannii ATCC 19606; details: ATCC 19606
Method: as §3

[14] = tested on: Gram-negative and Gram-positive bacteria and yeasts/fungi; assay: MIC, whole panel of strains; type: cell-based; details: for MIC: against all strains
[15] = tested on: K. pneumoniae ATCC 13883; details: ATCC 13883
Method: as §3

[16] = tested on: E. coli ML-35p; details: MH broth, 10^6 cfu/ml; mean of 3 independent experiments in triplicate
Method: as §2, §3

[17] = tested on: S. aureus ATCC 25923; details: ATCC 25923
Method: as §3

[18] = tested on: L. ivanovii
Method: as §2, §3

[19] = tested on: S. cerevisiae; details: 96 h
Method: as §6, §7

[20] = tested on: Human THP-1 monocytes; details: 72 h
[21] = tested on: E. faecalis ATCC 29212; details: ATCC 29212
Method: as §2, §3

[22] = tested on: S. enterica (serotype Enteritidis); details: serotype Enteritidis
Method: as §3

[23] = tested on: L. infantum promastigotes; details: promastigotes, 96 h
Method: (§8) L. infantum axenic amastigotes were differentiated from promastigotes in MAA medium (supplemented with 20% FCS) and were grown at 37°C in 5% CO2 [23].
(§9) Antiparasitic activity was evaluated against trypanosomatids, such as Leishmania and Trypanosoma. Antileishmanial activity was determined either by a luminescence-based assay (L. infantum, L. major and L. braziliensis) or by cell counting (FACSCalibur flow cytometer, Becton-Dickinson Biosciences, Woburn, MA, USA) after staining with propidium iodide (L. tropica and L. amazonensis), as previously described [23], using promastigotes or axenic amastigotes (1.25 x 10^6 parasites/ml) in mid-log phase and 5-fold serial dilutions of synthetic temporin (50–3.1 μM, final concentrations). […] The half maximal inhibitory concentration (IC50) value was determined with GraphPad Prism 6.0 software (GraphPad Software, La Jolla, CA, USA) using a sigmoidal dose response (variable slope) curve fitting equation. The results are expressed as the means of three independent experiments performed in triplicate (luminescence-based assays) or in duplicate (cell counting-based assays).

[24] = tested on: S. aureus ATCC BAA-44; details: ATCC BAA-44
[25] = tested on: T. cruzi epimastigotes; details: epimastigotes, 120 h
Method: (§10) Antiparasitic activity was evaluated against trypanosomatids, such as Leishmania and Trypanosoma. Antileishmanial activity was determined either by a luminescence-based assay (L. infantum, L. major and L. braziliensis) or by cell counting (FACSCalibur flow cytometer, Becton-Dickinson Biosciences, Woburn, MA, USA) after staining with propidium iodide (L. tropica and L. amazonensis), as previously described [23], using promastigotes or axenic amastigotes (1.25 x 10^6 parasites/ml) in mid-log phase and 5-fold serial dilutions of synthetic temporin (50–3.1 μM, final concentrations). Antitrypanosomal activity against T. brucei gambiense and T. cruzi was assessed by cell counting, similar to the L. tropica and L. amazonensis analysis, after incubation of the parasites (96 h for T. brucei gambiense and 120 h for T. cruzi) with the synthetic temporin, as previously described [23]. The half maximal inhibitory concentration (IC50) value was determined with GraphPad Prism 6.0 software (GraphPad Software, La Jolla, CA, USA) using a sigmoidal dose response (variable slope) curve fitting equation. The results are expressed as the means of three independent experiments performed in triplicate (luminescence-based assays) or in duplicate (cell counting-based assays).

[26] = tested on: Gram-positive bacteria; details: 7 Gram-positive strains of Table 3
[27] = tested on: L. infantum (antimony resistant) promastigotes; details: antimony-resistant parasites
Method: as §10

[28] = tested on: L. infantum (intramacrophagic) amastigotes in THP-1-derived macrophages; details: intramacrophagic) amastigotes in THP-1-derived macrophages, 24 h
Method: Leishmania infantum (strain MHOM/MA/67/ITMAP-263), Leishmania major (strain MHOM/SU/73/5-ASKH), Leishmania tropica (strain MHOM/SU/74/SAFK27), Leishmania amazonensis (strain MHOM/BR/73/M2269), and Leishmania braziliensis (strain MHOM/BR/75/M2904) promastigotes (kindly provided by Francine Pratlong, Centre National de Référence des Leishmania, Montpellier, France) were cultured at 26°C in SDM-79 medium supplemented with 10% fetal calf serum (FCS, Gibco) [23]. […] L. infantum-infected human macrophages were obtained from human THP-1 monocytes, as previously described [23, 78].
Intramacrophagic leishmanicidal activity of the peptides was assessed by incubating L. infantum-infected human macrophages with 2-fold serial dilutions of peptide (50–2.5 μM, final concentrations) for 4 days, as previously described [23]. THP-1-derived macrophages were infected with promastigotes from late log phase at a density of 5 x 10^5 cells/well (ratio 10:1) in RPMI medium for 24 h at 37°C with 5% CO2. […] The results are expressed as the means of two experiments performed with six replicates.

[29] = tested on: Gram-negative bacteria; details: 6 Gram-negative strains of Table 3
[30] = tested on: L. major promastigotes; details: promastigotes, 96 h
Method: as §8, §9

[31] = tested on: promastigotes of several species of Leishmania; details: 96 h
Method: as §10

[32] = tested on: Human fibroblasts (HFF); details: 72 h
[33] = tested on: L. braziliensis promastigotes; details: 96 h
Method: as §8, §9

[34] = tested on: Human THP-1-derived macrophages; assay: Cytotoxicity, Trypan blue staining; details: 1–100 μM, mean of 3 independent experiments, six replicates
Method: as §4, §5

[35] = tested on: L. infantum (axenic) amastigotes; details: axenic) amastigotes, 96 h
Method: as §8, §9

[36] = tested on: L. amazonensis promastigotes; details: promastigotes, 96 h
Method: as §8, §9

[37] = tested on: T. brucei gambiense; details: gambiense, 96 h
Method: as §10

[38] = tested on: S. aureus ATCC 43300; details: strain resistant to methicillin and oxacillin; MH broth, 10^6 cfu/ml; mean of 3 independent experiments in triplicate
Method: as §2, §3

[39] = tested on: Yeasts/fungi

Compound: CC1(C)S[C@@H]2[C@H](NC(=O)[C@H](N)c3ccccc3)C(=O)N2[C@H]1C(=O)O [ampicillin]
- MIC ([1]; Escherichia coli, ATCC25922, read-out: MIC (initial, before selection)): 12.5 µM (≈ 4.37 µg/mL)
- fold increase in the MIC against adapted E. coli lineages ([1]; lineages adapted from MIC/16 to MIC, 55 passages): 6 fold
- fold increase in the MIC against control bacteria at the end of the selection [1]: 4 fold

Compound: D-temporin-SHa [D-SHa]
- fold increase in the MIC against control bacteria at the end of the selection [1]: ~2 fold

Compound: CCCCCCCCCCCCCCCCOP(=O)([O-])OCC[N+](C)(C)C [Miltefosine, hexadecylphosphocholine]
- DNA fragmentation (FITC-positive cells) [2]: approximately 65%
- Sub-G1 phase (% of cells) [3]: 29.1 % of cells
- Sub-G1 phase (% of cells) ([3]; listed as miltefosine): 29 % of cells

Compound: FASGIAGMAGKLF-NH2 [[A^2,6,9]SHa, [A^2,6,9]temporin-SHa]
- MIC [4]: > 200 µM
- MIC [5]: > 200 µM
- IC50 [6]: > 600 µM
- LC50 [7]: > 100 µM
- MIC [8]: > 200 µM
- LC50 [9]: > 200 µM
- MIC [10]: > 200 µM
- MIC [11]: > 200 µM
- MIC [12]: > 200 µM
- MIC [13]: > 200 µM
- MIC [14]: > 200 µM
- MIC [15]: > 200 µM
- MIC [16]: > 200 µM
- MIC [17]: > 200 µM
- MIC [18]: > 200 µM
- MIC [19]: > 200 µM
- IC50 [20]: > 60 µM
- MIC [21]: > 200 µM
- MIC [22]: > 200 µM

Compound: GLWSKIKEVGKEAAKAAAKAAGKAALGAVSEAV-NH2 (C-terminus assumed) [dermaseptin B2, reference compound]
- IC50 [23]: 2.5 µM
- IC50 [20]: ~7 µM

Compound: FAKGIAGMAGKLF-NH2 [[A^2,6,9, K^3]SHa, [A^2,6,9, K^3]temporin-SHa]
- MIC [5]: > 200 µM
- MIC [8]: > 200 µM
- LC50 [9]: > 200 µM
- MIC [10]: > 200 µM
- MIC [11]: > 200 µM
- MIC [12]: > 200 µM
- MIC [13]: > 200 µM
- MIC [14]: > 200 µM
- MIC [15]: > 200 µM
- MIC [16]: > 200 µM
- MIC [17]: > 200 µM
- MIC [18]: > 200 µM
- MIC [19]: > 200 µM
- MIC [21]: > 200 µM
- MIC [22]: > 200 µM

Compound: FLKGIVGMLGKLF-NH2 [[K^3]SHa, [K^3]temporin-SHa]
- MIC [4]: 1 µM
- MIC [24]: 3 µM
- MIC [5]: 3 µM
- IC50 [25]: 10 µM
- MICGM (geometric mean of the MIC values) [26]: 2.8 µM
- IC50 [6]: 358 µM
- LC50 [7]: 50 µM
- MIC [8]: 6 µM
- LC50 [9]: 26 µM
- IC50 [27]: 9 µM
- MIC [10]: 25 µM
- IC50 [28]: 5 µM
- MIC [11]: 6 µM
- MICGM (geometric mean of the MIC values) [29]: 3.8 µM
- MIC [12]: 3 µM
- IC50 [30]: 10 µM
- MIC [13]: 3 µM
- MIC (range over strains) ([14]; all the tested bacteria): 1 to 6 µM
- IC50 [31]: 5 to 10 µM
- IC50 [32]: > 100 µM
- IC50 [33]: 5 µM
- MIC [15]: 3 µM
- LC50 [34]: 55 µM
- MIC [16]: 3 µM
- IC50 [35]: 20 µM
- IC50 [36]: 8 µM
- MIC [17]: 3 µM
- IC50 [37]: 16 µM
- MIC [18]: 3 µM
- MIC [19]: 3 µM
- IC50 [20]: 48 µM
- MIC [38]: 3 µM
- MIC [21]: 6 µM
- MICGM (geometric mean of the MIC values) ([39]; 3 yeast/fungal strains of Table 3): 7.7 µM
- MIC (range over strains) ([39]; yeasts/fungi): 3 to 25 µM
- MIC [22]: 6 µM
